The values that follow come from ChEMBL document CHEMBL4406795, “An overview on the synthetic and medicinal perspectives of indenopyrazoles” (Eur J Med Chem, 2019).

Test [1] has as its target Cyclin-dependent kinase 2 (Homo sapiens, UniProt P24941). Description: Inhibition of CDK2 (unknown origin).
Test [2] concerns Bacillus subtilis. Nature of the test: Antibacterial activity against Bacillus subtilis MTCC 441 after 48 hrs by serial tube dilution method. It is filed as functional. Conditions: MTCC 441, 48 h.
Test [3] relates to Staphylococcus aureus. Nature of the test: Antibacterial activity against Staphylococcus aureus MTCC 7443 after 48 hrs by serial tube dilution method. The following applies: MTCC 7443, 48 h. It is filed as functional.
For test [4], the system named is Escherichia coli. Description: Antibacterial activity against Escherichia coli MTCC 42 after 48 hrs by serial tube dilution method. It is filed as functional. Conditions: for MIC: Escherichia coli, MTCC 42, 48 h.
For test [5], the system named is Pseudomonas aeruginosa. Description: Antibacterial activity against Pseudomonas aeruginosa MTCC 741 after 48 hrs by serial tube dilution method. The following applies: MTCC 741, 48 h. It is filed as functional.
In test [6] the test system is Candida albicans. Description: Antifungal activity against Candida albicans MTCC 183 after 120 hrs by serial tube dilution method. Conditions: MTCC 183, 120 h. It counts as functional.
Test [7] relates to Aspergillus niger. Description: Antifungal activity against Aspergillus niger MTCC 282 after 120 hrs by serial tube dilution method. It counts as functional. Conditions: MTCC 282, 120 h.
Test [8] deals with Candida albicans. Description: Antifungal activity against Candida albicans MTCC 183 assessed as zone of inhibition. It counts as functional.
Test [9] deals with Aspergillus niger. Nature of the test: Antifungal activity against Aspergillus niger MTCC 282 assessed as zone of inhibition. It counts as functional.
The test system of test [10] is Bacillus subtilis. Nature of the test: Antibacterial activity against Bacillus subtilis MTCC 441 assessed as zone of inhibition. It counts as functional.
Test [11] deals with Staphylococcus aureus. Description: Antibacterial activity against Staphylococcus aureus MTCC 7443 assessed as zone of inhibition. It counts as functional.
The subject of test [12] is Escherichia coli. Description: Antibacterial activity against Escherichia coli MTCC 42 assessed as zone of inhibition. It counts as functional.

Each structure is given as a SMILES string. In brackets after ≈: the same amount, converted by molar mass.

As a reminder, the IC50 is the concentration needed to halve the response being measured. Read a low IC50 as greater potency. A word on the MIC: it is the smallest concentration in the dilution series that meets the test's criterion for growth inhibition.

Consider `NC(=O)Nc1cccc2c1C(=O)c1c-2n[nH]c1-c1csc(Cl)c1`, for which the half-maximal inhibitory concentration (IC50) in [1] came out at 46 nM.

Take `COc1cc2c(cc1OC)C1=NN(C(N)=S)C(c3ccc(F)cc3)C1C2` (stereo unspecified): the MIC in test [2], in [3], in test [4] and in [5] was 4 µg/mL (≈ 10.8 µM) throughout.

Consider `COc1ccc(C2C3Cc4cc(OC)c(OC)cc4C3=NN2C(N)=O)cc1` (stereo unspecified), for which the MIC in [6] lay in the range of 2 to 4 µg/mL (≈ 5.44 to 10.9 µM); in test [7], 2 to 4 µg/mL.

On to `O=C(Nc1cccc2c1C(=O)c1c-2n[nH]c1-c1ccc(C(=O)N2CCNCC2)s1)NN1CCOCC1`, for which the concentration for half-maximal inhibition (IC50) in [1] turned out to be 8 nM.

For `COc1ccc(-c2n[nH]c3c2C(=O)c2c(C=O)cccc2-3)cc1`, in test [1], the IC50 amounted to 57 nM.

The compound `Cc1ccc2nc(-n3nc(-c4ccc(Cl)cc4)c4c3-c3ccccc3C4=O)sc2c1` came in with an MIC in test [7] of 3.6 µM.

`Clc1ccc(-c2c3c(nn2-c2ccccc2)-c2ccccc2C3)cc1`: the results for the MIC in test [6] and in test [7] were 50 µg/mL (≈ 146 µM) and 50 µg/mL, respectively. The “inhibition zone (IZ)” value in [8] and in [9] was 16 mm throughout.

Turning to `Cc1nn(-c2nc(-c3ccc(Cl)cc3)cs2)c2c1C(=O)c1ccccc1-2`, the “-logMIC” value in test [4] was 1.479.

Regarding `Cc1nn(-c2nc(-c3ccc(Cl)cc3)cs2)c2c1Cc1ccccc1-2`, in test [4], the “-logMIC” value is 1.764.

In test [7], `OC(Cn1cncn1)(Cn1cncn1)c1ccc(F)cc1F` [FLUCONAZOLE] came in with a minimal inhibitory concentration (MIC) of 5 µM.

With `O=[N+]([O-])c1ccc(-c2c3c(nn2-c2ccccc2)-c2ccccc2C3)cc1`, the MIC in test [2] turned out to be 50 µg/mL (≈ 141 µM); in [3], 50 µg/mL (≈ 141 µM); in test [4] it was 50 µg/mL (≈ 141 µM); in [6] it was 50 µg/mL (≈ 141 µM); in test [7], 50 µg/mL. In addition, the “inhibition zone (IZ)” value was 18 mm in [10]; 18 mm in test [11]; 18 mm in test [12]; 13 mm in [8]; 13 mm in test [9].

For the compound `CCc1nn(-c2nc(-c3ccc(Cl)cc3)cs2)c2c1C(=O)c1ccccc1-2`, the “-logMIC” value in test [4] came to 2.098.

With `COc1ccc(-c2[nH]nc3c2C(=O)c2c(NC(=O)CN4CCN(C(=N)N)CC4)cccc2-3)cc1`, in test [1], inhibition was half-maximal at 13 nM (IC50).

On to `Clc1ccc(-c2nn(-c3ccccc3)cc2-c2c3c(nn2-c2ccccc2)-c2ccccc2C3)cc1`, for which the MIC in test [2], in test [3] and in [4] was 50 µg/mL (≈ 103 µM) each time. Moreover, the “inhibition zone (IZ)” value in test [10], in test [11] and in test [12] was 17 mm throughout.

For the compound `O=[N+]([O-])c1ccc(-c2nn(-c3ccccc3)cc2-c2c3c(nn2-c2ccccc2)-c2ccccc2C3)cc1`, the MIC in test [2] was found to be 50 µg/mL (≈ 101 µM); in [3], 50 µg/mL (≈ 101 µM); in test [4] it was 50 µg/mL (≈ 101 µM); in test [6], 50 µg/mL (≈ 101 µM); in [7], 50 µg/mL. Further, the “inhibition zone (IZ)” value in test [10] is recorded as 20 mm; in [11] it was 20 mm; in test [12], 20 mm; in test [8] it was 18 mm; in test [9], 18 mm.

As for `CCc1nn(-c2nc(-c3ccc(Cl)cc3)cs2)c2c1Cc1ccccc1-2`, the “-logMIC” value in test [4] amounted to 1.78.

As for `O=[N+]([O-])c1cccc(-c2c3c(nn2-c2ccccc2)-c2ccccc2C3)c1`, the minimum inhibitory concentration (MIC) in [2] stood at 50 µg/mL (≈ 141 µM); in test [3] it was 50 µg/mL (≈ 141 µM); in test [4], 50 µg/mL (≈ 141 µM); in [6], 50 µg/mL (≈ 141 µM); in [7] it was 50 µg/mL. Moreover, the “inhibition zone (IZ)” value was 17 mm in [10]; 17 mm in test [11]; 17 mm in test [12]; 15 mm in [8]; 15 mm in test [9].
